Values quoted from earlier work as cited in patent publication US20220143046A1, “COMPOSITION AND METHODS FOR RECTAL DELIVERY OF 4-AAPA AND 5-ASA COMPOUNDS” (9 METERS BIOPHARMA, INC., priority 2019, published 2022).

Conditions: oral formulation; two Phase 1 clinical trials for mild to moderate ulcerative colitis

For `O=C(O)Cc1ccc(/N=N/c2ccc(O)c(C(=O)O)c2)cc1` [INN-108, 5-(4-carboxymethyl-phenylazo)-2-hydroxybenzoic acid], the systemic absorption is listed as “no evidence of systemic absorption”.
